# Results published in BindingDB's records for patent US10709709 (Pfizer Inc., 2020).
# Target: Protein arginine N-methyltransferase 5 (Homo sapiens, UniProt O14744)
# Test: Biochemical Assay
# Procedure: Compounds were solubilized in DMSO and serially diluted, using 3-fold dilutions, into 100% DMSO at a concentration 50-fold greater than the desired assay concentration. Following dilution, 1 ul was added to an empty 96-well microtiter plate. PRMT5/MEP50 protein complex was combined with H4(1-21) peptide ([…]) in PRMT5 assay buffer (50 mM Tris pH 8.5, 50 mM NaCl, 5 mM MgCl2, 1 mM EDTA, 1 mM TCEP) and 44 ul was added to the microtiter plate containing compound. S-Adenosyl-L-methionine (SAM) was prepared by combining 3H labelled SAM with unlabelled SAM in PRMT5 assay buffer such that the final SAM concentration was 10 uM and the specific activity was 0.2 uCi/ul. The reaction was initiated by adding 5 ul of SAM stock to the microtiter plate. The final reaction conditions were 10 nM PRMT5/MEP50 complex, 200 nM peptide and 1 uM SAM. Following a 25 minute incubation at room temperature, the reaction was stopped with the addition of 100 uL of 20% TCA. The 3H-peptide product was captured using a 96-well filter plate (MSIPN4B, Millipore) and washed 5 times with PBS buffer. Scintillation fluid (100 ul) was added to the dried filter plate and counted in a liquid scintillation counter. IC50 values were determined by fitting the data to the standard 4-parameter dose response equation using Pfizer proprietary software.
# Protein arginine N-methyltransferase 5, sequence (O14744 whole entry): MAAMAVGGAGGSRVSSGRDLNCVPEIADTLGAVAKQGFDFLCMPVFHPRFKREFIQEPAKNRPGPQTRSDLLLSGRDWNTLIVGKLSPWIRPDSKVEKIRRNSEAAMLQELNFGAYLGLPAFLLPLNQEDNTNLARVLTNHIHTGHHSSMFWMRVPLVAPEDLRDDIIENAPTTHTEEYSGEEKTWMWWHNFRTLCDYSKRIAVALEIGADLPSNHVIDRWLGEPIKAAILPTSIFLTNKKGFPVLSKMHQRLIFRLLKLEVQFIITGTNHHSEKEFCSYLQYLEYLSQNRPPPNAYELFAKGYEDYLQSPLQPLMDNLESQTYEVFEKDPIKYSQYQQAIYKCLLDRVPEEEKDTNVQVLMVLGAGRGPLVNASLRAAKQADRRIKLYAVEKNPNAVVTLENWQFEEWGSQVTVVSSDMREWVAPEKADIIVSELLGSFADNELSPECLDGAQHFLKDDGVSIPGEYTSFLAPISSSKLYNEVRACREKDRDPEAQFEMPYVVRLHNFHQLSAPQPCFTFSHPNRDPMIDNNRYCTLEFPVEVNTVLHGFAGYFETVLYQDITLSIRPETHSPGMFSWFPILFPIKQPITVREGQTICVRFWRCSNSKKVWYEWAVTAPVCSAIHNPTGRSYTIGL
row,SMILES,IC50 [nM]
1,"Nc1ncnc2c1c(Br)cn2[C@@H]1C[C@H](Oc2cc(Cl)cc3c2CNCC3)[C@@H](O)[C@H]1O [US10709709, Example 131]",1
2,"Cc1ncnc2c1ccn2[C@@H]1C[C@H](Oc2cc(C(F)F)cc3c2CNCCO3)[C@@H](O)[C@H]1O [US10709709, Example 205]",1
3,"Cc1cc2c(c(O[C@H]3C[C@@H](n4ccc5c(C)ncnc54)[C@H](O)[C@@H]3O)c1)CNCCO2 [US10709709, Example 206]",2
